19 compounds from ChEMBL document CHEMBL4190235, “Polysubstituted 2-aminoimidazoles as anti-biofilm and antiproliferative agents: Discovery of potent lead” (Eur J Med Chem, 2017) can be followed below.

The term IC50 denotes the concentration that inhibits the measured activity by half. Read a low IC50 as higher potency.

Bounds are passed on as bounds.

In test [1] the test system is Pseudomonas aeruginosa. Nature of the test: Antibiofilm activity against Pseudomonas aeruginosa PA14 after 24 hrs by crystal violet staining based method. The class given is functional.
The test system of test [2] is Pseudomonas aeruginosa. The test can be described thus: Inhibition of planktonic growth of Pseudomonas aeruginosa PA14 cells. The class given is organism-based.
In test [3] the test system is Salmonella typhimurium. Nature of the test: Antibiofilm activity against Salmonella typhimurium ATCC 14028 after 24 hrs by crystal violet staining based method. The class given is functional, Salmonella enterica subsp. enterica serovar Typhimurium.
Test [4] relates to Salmonella typhimurium. Nature of the test: Inhibition of planktonic growth of Salmonella typhimurium ATCC 14028. The class given is organism-based, Salmonella enterica subsp. enterica serovar Typhimurium. The conditions noted are these: Salmonella enterica.
Test [5] relates to Staphylococcus aureus. Nature of the test: Antibiofilm activity against Staphylococcus aureus SH1000 after 48 hrs by crystal violet staining based method. It is filed as functional.
For test [6], the system named is Staphylococcus aureus. The test can be described thus: Inhibition of planktonic growth of Staphylococcus aureus SH1000. The class given is organism-based.
The test system of test [7] is A-375. The test can be described thus: Antiproliferative activity against human A375 cells after 48 hrs by MTT assay. It is filed as functional, cell-based. As to conditions: A-375, 48 h. On the technique in general: Tetrazolium assays rely on reduction of a dye to a coloured formazan, in cell work by metabolically active cells.
The subject of test [8] is MIA PaCa-2. The test can be described thus: Antiproliferative activity against human MIAPaCa2 cells after 48 hrs by MTT assay. It is filed as functional, cell-based. The conditions noted are these: MIA PaCa-2, 48 h.

Consider `CCCCCCCc1nc(N)n(CC(=O)Nc2ccccc2)c1-c1ccccc1Br`, for which the results for the MBIC50 in test [1], in test [3] and in test [5] were 221.9 µM, 114.8 µM and 18.1 µM, respectively. Also, the IC50 was over 400 µM in test [2]; over 400 µM in test [4]; 70.8 µM in test [6]; 9.2 µM in test [7]; 7.9 µM in test [8].

For the compound `Nc1nc(Cc2ccccc2)c(-c2ccccc2Br)n1CC(=O)NCc1ccccc1`, the MBIC50 in test [1] came to 382.1 µM; in test [3], 38.8 µM; in test [5], 41.5 µM. Also, the 50% inhibitory concentration (IC50) is 55.7 µM in test [2], over 400 µM in test [4] and 55.7 µM in test [6].

With `Cc1ccc(NC(=O)Cn2c(N)nc(CC3CCCC3)c2-c2ccccc2Br)cc1`, the MBIC50 in test [1] is over 400 µM; in test [3], over 400 µM; in test [5], 289.6 µM. Further, the IC50 in test [2] was over 400 µM; in test [4], over 400 µM; in test [6], over 400 µM; in test [7], 47.8 µM; in test [8] it was 80.5 µM.

Turning to `CCCCCCCc1nc(N)n(CC(=O)Nc2ccc(C)cc2)c1-c1ccccc1Br`, the values for the MBIC50 in test [1], in test [3] and in test [5] were 291.1 µM, 37.7 µM and 14.4 µM, respectively. Further, the IC50 is 190 µM in test [2]; over 400 µM in test [4]; 22.8 µM in test [6]; 5.2 µM in test [7]; 7 µM in test [8].

Take `COc1ccc(NC(=O)Cn2c(N)nc(Cc3ccc(C(C)(C)C)cc3)c2-c2ccccc2Br)cc1`: the figures for the MBIC50 in test [1], in test [3] and in test [5] were over 400 µM, 231.2 µM and 11.5 µM, respectively. Besides, the IC50 was over 400 µM in test [2], over 400 µM in test [4] and 37.2 µM in test [6].

In the case of `O=c1cc(-c2ccccc2)oc2cc(O)c(O)c(O)c12` [BAICALEIN], the MBIC50 is over 400 µM in test [1], over 400 µM in test [3] and 77.5 µM in test [5]. Further, the 50% inhibitory concentration (IC50) in test [2], in test [4] and in test [6] was over 400 µM in each case.

As to `CC(C)(C)c1ccc(Cc2nc(N)n(CC(=O)Nc3ccc([N+](=O)[O-])cc3)c2-c2ccccc2Br)cc1`, the MBIC50 in test [1], in test [3] and in test [5] was over 400 µM in each case. For the same compound, the IC50 in test [2], in test [4] and in test [6] was over 400 µM in each case.

In the case of `CCCCCCc1nc(N)n(CC(=O)Nc2ccc(C)cc2)c1-c1ccccc1Br`, the figures for the MBIC50 in test [1], in test [3] and in test [5] were 29.5 µM, 21.8 µM and 12.6 µM, respectively. The IC50 is 49.6 µM in test [2]; over 400 µM in test [4]; 23.1 µM in test [6]; 5.1 µM in test [7]; 6.5 µM in test [8].

For the compound `Cc1ccc(NC(=O)Cn2c(N)nc(Cc3ccccc3)c2-c2ccccc2Br)cc1`, the MBIC50 in test [1] came out at 16.8 µM; in test [3], 6 µM; in test [5], 7.6 µM. For the same compound, the IC50 is 13.8 µM in test [2]; 29.8 µM in test [4]; 12.3 µM in test [6]; 2 µM in test [7]; 3.8 µM in test [8].

Regarding `CC(C)(C)c1ccc(Cc2nc(N)n(CC(=O)NCc3ccccc3)c2-c2ccccc2Br)cc1`, the MBIC50 in test [1], in test [3] and in test [5] was over 400 µM in each case. In addition, the IC50 in test [2], in test [4] and in test [6] was over 400 µM throughout.

As for `Cc1ccc(Cc2nc(N)n(CC(=O)Nc3ccccc3)c2-c2ccccc2Br)cc1`, the MBIC50 in test [1], in test [3] and in test [5] was over 400 µM in each case. The IC50 was over 400 µM in test [2]; over 400 µM in test [4]; over 400 µM in test [6]; 2.5 µM in test [7]; 9.2 µM in test [8].

For the compound `CC(C)(C)c1ccc(Cc2nc(N)n(CC(=O)Nc3ccccc3)c2-c2ccccc2Br)cc1`, the MBIC50 in test [1] came to 124.3 µM; in test [3], 12.5 µM; in test [5], 6.5 µM. Moreover, the IC50 was over 400 µM in test [2]; over 400 µM in test [4]; 7.8 µM in test [6]; 2.8 µM in test [7]; 4.9 µM in test [8].

As to `Nc1nc(CC2CCCCC2)c(-c2ccccc2Br)n1CC(=O)Nc1ccccc1`, the MBIC50 in test [1], in test [3] and in test [5] was over 400 µM each time. In addition, the IC50 is over 400 µM in test [2]; over 400 µM in test [4]; over 400 µM in test [6]; 40.6 µM in test [7]; 89 µM in test [8].

Turning to `Nc1nc(Cc2ccccc2)c(-c2ccccc2Br)n1CC(=O)Nc1ccccc1`, the MBIC50 in test [1], in test [3] and in test [5] was over 400 µM in each case. Besides, the IC50 was over 400 µM in test [2]; over 400 µM in test [4]; over 400 µM in test [6]; 5.2 µM in test [7]; 5.7 µM in test [8].

Take `O=C(OC[C@H]1O[C@@H](OC(=O)c2cc(O)c(O)c(OC(=O)c3cc(O)c(O)c(O)c3)c2)[C@H](OC(=O)c2cc(O)c(O)c(OC(=O)c3cc(O)c(O)c(O)c3)c2)[C@@H](OC(=O)c2cc(O)c(O)c(OC(=O)c3cc(O)c(O)c(O)c3)c2)[C@@H]1OC(=O)c1cc(O)c(O)c(OC(=O)c2cc(O)c(O)c(O)c2)c1)c1cc(O)c(O)c(OC(=O)c2cc(O)c(O)c(O)c2)c1` [TANNIC ACID]: the figures for the MBIC50 in test [1], in test [3] and in test [5] were 27.7 µM, 18.8 µM and 115.3 µM, respectively. For the same compound, the IC50 in test [2], in test [4] and in test [6] was over 400 µM each time.

As to `Nc1nc(CC2CCCC2)c(-c2ccccc2Br)n1CC(=O)Nc1ccccc1`, the MBIC50 in test [1], in test [3] and in test [5] was over 400 µM throughout. In addition, the IC50 is over 400 µM in test [2]; over 400 µM in test [4]; over 400 µM in test [6]; 24.3 µM in test [7]; 61.4 µM in test [8].

On to `Nc1nc(CC2CC2)c(-c2ccccc2Br)n1CC(=O)Nc1ccccc1`, for which the MBIC50 in test [1] is 86.3 µM; in test [3] it was 107.6 µM; in test [5], 29.2 µM. Moreover, the IC50 is 155 µM in test [2]; over 400 µM in test [4]; 130 µM in test [6]; 5.8 µM in test [7]; 6.9 µM in test [8].

Turning to `O=C(N/N=C/c1ccc([N+](=O)[O-])o1)c1ccc(O)cc1` [NIFUROXAZIDE], the MBIC50 in test [1], in test [3] and in test [5] was over 400 µM in each case. Further, the half-inhibitory concentration (IC50) in test [2], in test [4] and in test [6] was over 400 µM each time.

As for `CC(=O)O[C@H]1C(=O)[C@@]2(C)[C@H]([C@H](OC(=O)c3ccccc3)[C@]3(O)C[C@H](OC(=O)[C@H](O)[C@@H](NC(=O)c4ccccc4)c4ccccc4)C(C)=C1C3(C)C)[C@]1(OC(C)=O)CO[C@@H]1C[C@@H]2O` [PACLITAXEL], the IC50 in test [7] stood at 0.7 µM; in test [8], 2.5 µM.
